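48-hour exposure; five concentrations; linearly interpolated endpoints. GI50: concentration for 50% inhibition of growth.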 The source made the active and inactive calls. No stated cut-off is given here; in the data, active = GI50 up to about 1.1 µM and inactive = higher.
Columns and labels:
Test in all cases: NCI anticancer screen, dose series, 48 h
[1] = tested on: UACC-257
[2] = tested on: SNB-19
[3] = tested on: SK-MEL-28
[4] = tested on: SR
[5] = tested on: UACC-62
[6] = tested on: HL-60
[7] = tested on: HOP-92
[8] = tested on: RPMI-8226
[9] = tested on: U-251
[10] = tested on: HCT-116
[11] = tested on: COLO 205
[12] = tested on: OVCAR-5
[13] = tested on: SF-295
[14] = tested on: NCI-H522
[15] = tested on: M19-MEL
[16] = tested on: SNB-78
[17] = tested on: SK-OV-3
[18] = tested on: ACHN
[19] = tested on: K562
[20] = tested on: HOP-62
[21] = tested on: HCC 2998
[22] = tested on: KM12
[23] = tested on: OVCAR-3
[24] = tested on: SF-539
[25] = tested on: LXFL 529
[26] = tested on: DMS-114
[27] = tested on: SK-MEL-2
[28] = tested on: MOLT-4
[29] = tested on: NCI-H460
[30] = tested on: KM-20L2
[31] = tested on: NCI-H23
[32] = tested on: OVCAR-4
[33] = tested on: UO-31
[34] = tested on: SNB-75
[35] = tested on: HT-29
[36] = tested on: IGROV-1
[37] = tested on: M14
[38] = tested on: SF-268
[39] = tested on: DMS-273
[40] = tested on: CAKI-1
[41] = tested on: HCT-15
[42] = tested on: OVCAR-8
[43] = tested on: 786-0
[44] = tested on: A498
[45] = tested on: LOX IMVI
[46] = tested on: SW-620
[47] = tested on: CCRF-CEM
[48] = tested on: NCI-H226
[49] = tested on: Malme-3M
[50] = tested on: SK-MEL-5
[51] = tested on: SN12C
[52] = tested on: EKVX
[53] = tested on: A549
[54] = tested on: RXF 393
[55] = tested on: TK-10
[56] = tested on: XF498
[57] = tested on: DLD-1
[58] = tested on: MDA-MB-435
[59] = tested on: DU-145
[60] = tested on: BT-549
[61] = tested on: NCI/ADR-RES
[62] = tested on: MDA-MB-231
[63] = tested on: Hs-578T
[64] = tested on: MDA-N
[65] = tested on: MCF7
[66] = tested on: PC-3
[67] = tested on: T47D

Measured: GI50

Cc1cnc2cc(Cl)ccc2c1NCCN(CC(C)C)CC(C)C
inactive: [1] > 100 µM | [2] > 10 µM | [3] > 100 µM | [4] > 100 µM | [5] > 100 µM | [6] 9.75 µM | [7] 11.1 µM | [8] 13.6 µM | [9] > 100 µM | [10] 78.7 µM | [11] > 100 µM | [12] > 100 µM | [13] 32.7 µM | [14] 13.1 µM | [15] > 100 µM | [16] 41.1 µM | [17] > 100 µM | [18] > 100 µM | [19] 9.53 µM | [20] 67.6 µM | [21] > 100 µM | [22] > 100 µM | [23] 13.3 µM | [24] > 100 µM | [25] 59.8 µM | [26] 8.18 µM | [27] > 100 µM | [28] > 100 µM | [29] > 100 µM | [30] 17.5 µM | [31] 95.3 µM | [32] > 100 µM | [33] 9.23 µM | [34] > 100 µM | [35] 8.3 µM | [36] > 100 µM | [37] > 100 µM | [38] > 100 µM

O=C(OC1CCC2OOC1O2)c1ccc([N+](=O)[O-])cc1 (stereo not drawn)
inactive: [1] > 100 µM | [2] > 100 µM | [3] > 100 µM | [4] > 100 µM | [5] > 100 µM | [6] > 100 µM | [39] > 100 µM | [8] > 100 µM | [9] > 100 µM | [10] > 100 µM | [11] > 100 µM | [12] > 100 µM | [40] > 100 µM | [13] > 100 µM | [14] > 100 µM | [15] > 100 µM | [16] > 100 µM | [17] > 100 µM | [42] > 100 µM | [43] > 100 µM | [18] > 100 µM | [44] > 100 µM | [19] > 100 µM | [20] > 100 µM | [21] > 100 µM | [45] > 100 µM | [22] > 100 µM | [23] > 100 µM | [46] > 100 µM | [24] > 100 µM | [26] > 100 µM | [27] > 100 µM | [47] > 100 µM | [28] > 100 µM | [29] > 100 µM | [48] > 100 µM | [49] > 100 µM | [30] > 100 µM | [50] > 100 µM | [31] > 100 µM | [51] > 100 µM | [32] > 100 µM | [33] > 100 µM | [34] > 100 µM | [35] > 100 µM | [52] > 100 µM | [36] > 100 µM | [53] > 100 µM | [37] > 100 µM | [54] > 100 µM | [38] > 100 µM | [55] > 100 µM
> 100 µM: [41]

C#Cc1cccc(N2C(=O)c3c(c(-c4ccccc4)c(-c4ccc(Cc5ccc(-c6c(-c7ccccc7)c7c(c(-c8ccccc8)c6-c6ccccc6)C(=O)N(c6cccc(C#C)c6)C7=O)cc5)cc4)c(-c4ccccc4)c3-c3ccccc3)C2=O)c1
inactive: [1] 47.3 µM | [2] 40 µM | [3] > 100 µM | [5] 5.6 µM | [6] 22.3 µM | [39] 52.2 µM | [7] 2.79 µM | [8] 24.9 µM | [9] 33 µM | [10] 21 µM | [11] 27 µM | [12] > 100 µM | [13] 37.8 µM | [14] > 100 µM | [56] 22.8 µM | [15] 23.1 µM | [16] 47.4 µM | [57] 32.9 µM | [42] 31.5 µM | [43] 30.2 µM | [18] 15.9 µM | [19] 16.9 µM | [20] 25.8 µM | [21] 44.7 µM | [22] 25.6 µM | [23] 44.3 µM | [46] 33 µM | [24] 21.2 µM | [25] 14.9 µM | [26] 20.5 µM | [27] 57.9 µM | [47] 26.6 µM | [28] 14.3 µM | [29] 43.2 µM | [49] 45 µM | [30] 16.2 µM | [50] 21.9 µM | [31] 31.2 µM | [51] 20.7 µM | [32] > 100 µM | [33] 36.7 µM | [34] 16.3 µM | [35] 51.4 µM | [52] 51.2 µM | [36] 12.6 µM | [53] 24.4 µM | [37] 16.9 µM | [54] 15.9 µM | [38] 15 µM | [55] 17.9 µM
7.85 µM: [41]

CCC(/C=C/c1ccccc1)=N\N=C(\C=C\c1ccccc1)CC
> 100 µM: [41]
inactive: [1] > 100 µM | [2] > 100 µM | [3] > 100 µM | [4] > 100 µM | [5] > 100 µM | [6] > 100 µM | [39] > 100 µM | [8] > 100 µM | [9] > 100 µM | [10] > 100 µM | [11] > 100 µM | [12] > 100 µM | [13] > 100 µM | [14] > 100 µM | [56] > 100 µM | [15] > 100 µM | [16] > 100 µM | [17] > 100 µM | [57] > 100 µM | [42] > 100 µM | [43] > 100 µM | [18] > 100 µM | [44] > 100 µM | [19] > 100 µM | [20] > 100 µM | [21] > 100 µM | [45] > 100 µM | [22] > 100 µM | [23] > 100 µM | [46] > 100 µM | [25] > 100 µM | [27] > 100 µM | [47] > 100 µM | [28] > 100 µM | [29] > 100 µM | [48] > 100 µM | [49] > 100 µM | [30] > 100 µM | [50] > 100 µM | [31] > 100 µM | [51] > 100 µM | [32] > 100 µM | [33] > 100 µM | [34] > 100 µM | [35] > 100 µM | [52] > 100 µM | [36] > 100 µM | [53] > 100 µM | [37] > 100 µM | [38] > 100 µM | [55] > 100 µM

NC(=S)N/N=C/c1ncccc1N [TRIAPINE]
1.97 µM: [41]
active: [4] 0.403 µM | [5] 0.546 µM | [6] 1.03 µM | [7] 0.553 µM | [8] 0.792 µM | [9] 1.04 µM | [59] 0.681 µM | [10] 0.986 µM | [40] 0.521 µM | [42] 0.568 µM | [43] 0.314 µM | [18] 0.282 µM | [44] 0.615 µM | [45] 0.679 µM | [24] 0.239 µM | [47] 0.466 µM | [28] 0.438 µM | [50] 0.968 µM | [31] 0.332 µM | [33] 0.37 µM | [34] 0.773 µM | [65] 0.452 µM | [37] 0.583 µM | [54] 1.07 µM | [38] 0.925 µM
inactive: [1] > 6.65 µM | [2] 9.89 µM | [3] > 10 µM | [58] 1.71 µM | [11] 2.23 µM | [12] 5.08 µM | [13] 1.21 µM | [14] 2.03 µM | [60] 2.37 µM | [61] 2.04 µM | [17] > 8.55 µM | [62] 5.28 µM | [19] 3.13 µM | [20] 1.19 µM | [21] 1.62 µM | [22] 4.59 µM | [23] 2.25 µM | [46] 3.72 µM | [27] > 10 µM | [29] 1.68 µM | [48] 2.75 µM | [63] > 10 µM | [49] 1.87 µM | [64] 2.65 µM | [51] 1.41 µM | [32] 7.48 µM | [35] 1.93 µM | [66] 1.57 µM | [67] 4.39 µM | [52] 7.55 µM | [36] > 10 µM | [53] 2.02 µM | [55] > 10 µM
